# Reference: patent US20100256146A1, “TRISUBSTITUTED PIPERIDINES” (Novartis AG, priority 2007, published 2010)
# Biological target: T1, renin (Homo sapiens, UniProt P00797)
# T1 construct: This test measures the formation of angiotensin I in human plasma; from tissue; host or cells: human plasma
# T1 sequence (P00797 67-406): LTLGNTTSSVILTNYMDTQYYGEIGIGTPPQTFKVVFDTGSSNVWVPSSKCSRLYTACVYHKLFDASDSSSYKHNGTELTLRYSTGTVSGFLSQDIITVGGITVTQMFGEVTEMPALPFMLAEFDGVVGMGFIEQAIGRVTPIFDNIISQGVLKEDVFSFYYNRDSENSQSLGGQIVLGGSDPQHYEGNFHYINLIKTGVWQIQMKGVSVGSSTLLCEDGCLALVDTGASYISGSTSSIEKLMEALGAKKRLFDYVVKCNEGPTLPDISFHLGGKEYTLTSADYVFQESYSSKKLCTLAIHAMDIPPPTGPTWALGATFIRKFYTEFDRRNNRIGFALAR
# Experiment: in vitro test of Nussberger et al.: formation of angiotensin I in human plasma, determined by radioimmunoassay
# Format: biochemical
# Settings: concentration of inhibitor which reduces the formation of angiotensin I in human plasma by 50%
# Method: The effect of renin inhibitors is detected inter alia experimentally by means of in vitro tests where the reduction in the formation of angiotensin I is measured in various systems (human plasma, purified human renin together with synthetic or natural renin substrate). The following in vitro test of Nussberger et al. (1987) J. Cardiovascular Pharmacol., Vol. 9, pp. 39-44, is used inter alia. This test measures the formation of angiotensin I in human plasma. The amount of angiotensin I formed is determined in a subsequent radioimmunoassay. The effect of inhibitors on the formation of angiotensin I is tested in this system by adding various concentrations of these substances. The IC50 is defined as the concentration of the particular inhibitor which reduces the formation of angiotensin I by 50%. The compounds of the present invention show inhibitory effects in the in vitro systems at minimal concentrations of about 10^−6 to about 10^−10 mol/l.
row,IC50 [nM],Compound
1,26.5,"COCCCN1CCOc2ccc(CO[C@H]3CNCC[C@]3(OCCOC)c3ccc(COCCOC)cc3)cc21 [Example 1, 6-{(3S,4S)-4-(2-Methoxy-ethoxy)-4-[4-(2-methoxy-ethoxymethyl)-phenyl]-piperidine-3-yloxymethyl}-4-(3-methoxy-propyl)-3,4-dihydro-2H-benzo[1,4]oxazine]"
2,92.5,"COCCCN1CCOc2ccc(CO[C@H]3CNCC[C@]3(OCC3CCCC3)c3ccc(COCCOC)cc3)cc21 [Example 5, 6-{(3S,4S)-4-Cyclopentylmethoxy-4-[4-(2-methoxy-ethoxymethyl)-phenyl]-piperidin-3-yloxymethyl}-4-(3-methoxy-propyl)-3,4-dihydro-2H-benzo[1,4]oxazine]"
3,9.5,"COCCCN1CCOc2ccc(CO[C@H]3CNCC[C@]3(OC[C@@H](O)COC)c3ccc(COCCOC)cc3)cc21 [Example 3, (S)-1-Methoxy-3-{(3S,4S)-4-[4-(2-methoxy-ethoxymethyl)-phenyl]-3-[4-(3-methoxy-propyl)-3,4-dihydro-2H-benzo[1,4]oxazin-6-ylmethoxy]-piperidin-4-yloxy}-propan-2-ol]"

# Further lines, the compound ahead of its results:
row,Compound,IC50 [nM]
1,"COCCCO[C@]1(c2ccc(COC[C@@H](C)COC)cc2)CCNC[C@@H]1OCc1ccc2c(c1)N(CCCOC)CCO2 [Example 10, 6-[(3S,4S)-4-[4-((S)-3-Methoxy-2-methyl-propoxymethyl)-phenyl]-4-(3-methoxy-propoxy)-piperidin-3-yloxymethyl]-4-(3-methoxy-propyl)-3,4-dihydro-2H-benzo[1,4]oxazine]",3
2,"COCCCN1CCOc2ccc(CO[C@H]3CNCC[C@]3(OCC#N)c3ccc(COC[C@@H](C)COC)cc3)cc21 [Example 12, {(3S,4S)-4-[4-((S)-3-Methoxy-2-methyl-propoxymethyl)-phenyl]-3-[4-(3-methoxy-propyl)-3,4-dihydro-2H-benzo[1,4]oxazin-6-ylmethoxy]-piperidin-4-yloxy}-acetonitrile]",7.5
3,"COCCCN1CCOc2ccc(CO[C@H]3CNCC[C@]3(OC[C@H](O)COC)c3ccc(COCCOC)cc3)cc21 [Example 2, (R)-1-Methoxy-3-{(3S,4S)-4-[4-(2-methoxy-ethoxymethyl)-phenyl]-3-[4-(3-methoxy-propyl)-3,4-dihydro-2H-benzo[1,4]oxazin-6-ylmethoxy]-piperidin-4-yloxy}-propan-2-ol]",10.4
